From BindingDB's records for doi:10.1016/s0960-894x(02)01041-7 (Seoul National University, 2003)

Biological target: HT-29 cell line (Homo sapiens)
Assay: In vitro antiproliferative activity of compound against HT-29 (human colon caner ) cell line was determined by SRB assay

Row | IC50 | SMILES
1 | 33.1 µM | O=Cc1cccc(C(=O)Sc2ccc(Cl)c(Cl)c2)n1 [6-Formyl-pyridine-2-carbothioic acid S-(3,4-dichloro-phenyl) ester]
2 | 113 µM | N#Cc1ccc(C=O)nc1SCc1c(Cl)cccc1Cl [2-(2,6-Dichloro-benzylsulfanyl)-6-formyl-nicotinonitrile]
